Format in all cases: cell-based
For one test, the system named is B16-F1 melanocytes. The experiment in a line: B16 Pigmentation Assay. The text has this:
B16 Pigmentation Assay: Melanogenesis is the process by which melanocytes produce melanin, a naturally produced pigment that imparts color to skin, hair, and eyes. Inhibiting melanogenesis is beneficial to prevent skin darkening and lighten dark spots associated with aging. This bioassay utilizes B16-F1 melanocytes (ATCC), an immortalized mouse melanoma cell line, to analyze the effect of compounds on melanogenesis. The endpoint of this assay is a spectrophotometric measurement of melanin production and cellular viability. B16-F1 melanocytes, can be cultivated in standard DMEM growth medium with 10% fetal bovine serum (Mediatech) at 37° C. in 10% CO2 and then treated with any one of the active ingredients, combination of ingredients, or compositions having said combinations disclosed in the specification for 6 days. Following incubation, melanin secretion was measured by absorbance at 405 nm and cellular viability was quantified.

Test [1] concerns IL-1α production by Human Epidermal Keratinocytes. The experiment in a line: IL-1α Assay (ELISA, cell culture supernates). As to the method:
IL-1α Assay: A quantitative sandwich enzyme immunoassay technique(ELISA) was used to measure IL-1α in cell culture supernates. A monoclonal antibody that is specific for IL-1α was pre-coated onto a microplate. Standards and treatment samples are then pipetted into the wells and any IL-1α present is bound by the immobilized antibody. After washing away any unbound substances, an enzyme-linked polyclonal antibody specific for IL-1α is added to the wells. Following a wash to remove any unbound antibody-enzyme reagent, a substrate solution is added to the wells and color develops in proportion to the amount of IL-1α bound which was secreted in response to the treatment.
On the technique in general: An ELISA detects its analyte on a solid surface through an enzyme-linked reagent.

Test [2] has as its system TNF-α production by human epidermal keratinocytes. The experiment in a line: Tumor Necrosis Factor Alpha (TNF-α) Assay (ELISA). The text has this:
Tumor Necrosis Factor Alpha (TNF-α) Assay: The prototype ligand of the TNF superfamily, TNF-α, is a pleiotropic cytokine that plays a central role in inflammation. Increase in its expression is associated with an up regulation in pro-inflammatory activity. This bioassay can be used to analyze the effect of any one of the active ingredients, combination of ingredients, or compositions having said combinations disclosed in the specification on the production of TNF-α by human epidermal keratinocytes. The endpoint of this assay can be a spectrophotometric measurement that reflects the presence of TNF-α and cellular viability. The assay employs the quantitative sandwich enzyme immunoassay technique whereby a monoclonal antibody specific for TNF-α has been pre-coated onto a microplate. […] Following a wash to remove any unbound antibody-enzyme reagent, a substrate solution can be added to the wells and color develops in proportion to the amount of TNF-α bound in the initial step using a microplate reader for detection at 450 nm. The color development can be stopped and the intensity of the color can be measured. […] Following incubation, cell culture medium can be collected and the amount of TNF-α secretion quantified using a sandwich enzyme linked immuno-sorbant assay (ELISA) from R&D Systems (#DTA00C).

`NC(=O)c1cccnc1` [Niacinamide]: in the test on B16-F1 melanocytes, the “Inhibits Melanogenesis with Mouse Melanocytes (B16-F1 Assay)” value is “(−28%)”. In test [1], Acetyl dipeptide-1 Cetyl Ester came in with an Inhibit IL-1α Production by Human Epidermal Keratinocytes (% inhibition) of 97%. Also, the Inhibit TNF-α Production by Human Epidermal Keratinocytes in test [2] turned out to be 88%.

The values are drawn from patent publication US11253460B2, “Cosmetic compositions” (Mary Kay Inc., priority 2013, dated 2022).
